Source: ChEMBL document CHEMBL1201862, “PubChem BioAssay data set” (2004)
Values belong to the compound of their own block, whether it stands above or below them. Active and inactive are the calls of the source.

Columns and labels:
[1] = biological target: Proto-oncogene tyrosine-protein kinase receptor Ret (Homo sapiens, UniProt P07949); assay type: functional;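 note: measured within a kinome-wide profiling panel, RET as the panel member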
[2] = biological target: Calcium/calmodulin-dependent protein kinase type II subunit delta (Homo sapiens, UniProt Q13557); assay type: functional
[3] = biological target: Mitogen-activated protein kinase 8 (Homo sapiens, UniProt P45983); assay type: functional;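 note: value comes from one member of a kinome-wide kinase profiling panel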
Mitogen-activated protein kinase 8, sequence (P45983 whole entry): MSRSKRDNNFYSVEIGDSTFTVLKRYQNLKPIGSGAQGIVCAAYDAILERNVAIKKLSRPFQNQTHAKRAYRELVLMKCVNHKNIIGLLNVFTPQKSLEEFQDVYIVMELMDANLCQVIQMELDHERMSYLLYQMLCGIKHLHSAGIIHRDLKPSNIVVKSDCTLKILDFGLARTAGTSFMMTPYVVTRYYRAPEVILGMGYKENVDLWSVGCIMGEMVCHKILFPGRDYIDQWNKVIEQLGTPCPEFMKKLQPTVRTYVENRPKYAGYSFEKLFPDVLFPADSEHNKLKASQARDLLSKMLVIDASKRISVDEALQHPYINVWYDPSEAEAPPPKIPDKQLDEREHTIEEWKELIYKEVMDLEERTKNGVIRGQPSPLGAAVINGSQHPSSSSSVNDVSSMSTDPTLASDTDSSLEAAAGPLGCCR

[4] = biological target: Dual specificity protein kinase CLK4 (Homo sapiens, UniProt Q9HAZ1); assay type: functional
[5] = biological target: Tyrosine-protein kinase Lyn (Homo sapiens, UniProt P07948); assay type: functional;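 note: lyn as one member of a kinase panel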
Tyrosine-protein kinase Lyn, sequence (P07948 whole entry): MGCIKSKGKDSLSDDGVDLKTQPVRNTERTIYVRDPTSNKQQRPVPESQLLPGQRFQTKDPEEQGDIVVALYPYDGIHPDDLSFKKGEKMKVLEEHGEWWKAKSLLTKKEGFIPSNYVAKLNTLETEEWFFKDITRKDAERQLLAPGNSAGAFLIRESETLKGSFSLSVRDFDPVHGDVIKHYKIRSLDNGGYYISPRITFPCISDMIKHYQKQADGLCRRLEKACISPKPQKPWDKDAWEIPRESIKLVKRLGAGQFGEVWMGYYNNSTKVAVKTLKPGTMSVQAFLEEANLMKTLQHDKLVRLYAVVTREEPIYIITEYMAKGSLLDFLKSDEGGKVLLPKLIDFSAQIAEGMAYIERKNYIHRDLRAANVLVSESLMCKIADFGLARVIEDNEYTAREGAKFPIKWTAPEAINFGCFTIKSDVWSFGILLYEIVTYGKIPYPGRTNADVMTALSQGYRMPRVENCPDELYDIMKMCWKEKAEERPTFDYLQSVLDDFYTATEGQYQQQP

[6] = biological target: Hepatocyte growth factor receptor (Homo sapiens, UniProt P08581); assay type: functional;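 note: kinase panel profiling across the kinome, with MET as the panel member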
[7] = biological target: Tyrosine-protein kinase SYK (Homo sapiens, UniProt P43405); assay type: functional
[8] = biological target: Dual specificity tyrosine-phosphorylation-regulated kinase 4 (Homo sapiens, UniProt Q9NR20); assay type: functional
Dual specificity tyrosine-phosphorylation-regulated kinase 4, sequence (Q9NR20 whole entry): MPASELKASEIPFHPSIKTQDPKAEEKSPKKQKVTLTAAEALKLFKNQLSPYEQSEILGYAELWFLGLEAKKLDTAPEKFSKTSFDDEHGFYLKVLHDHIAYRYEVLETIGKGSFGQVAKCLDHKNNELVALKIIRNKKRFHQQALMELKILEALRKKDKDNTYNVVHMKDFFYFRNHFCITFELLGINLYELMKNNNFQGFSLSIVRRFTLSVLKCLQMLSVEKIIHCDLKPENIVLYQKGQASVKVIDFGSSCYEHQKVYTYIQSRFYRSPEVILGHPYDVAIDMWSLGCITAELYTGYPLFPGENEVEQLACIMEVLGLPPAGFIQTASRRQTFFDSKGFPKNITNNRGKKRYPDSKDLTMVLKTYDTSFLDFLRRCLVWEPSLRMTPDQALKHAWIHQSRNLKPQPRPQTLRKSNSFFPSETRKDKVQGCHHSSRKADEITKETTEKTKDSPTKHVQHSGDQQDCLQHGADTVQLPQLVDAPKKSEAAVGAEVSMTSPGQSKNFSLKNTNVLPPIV

[9] = biological target: Serine/threonine-protein kinase DCLK1 (Homo sapiens, UniProt O15075); assay type: functional;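 note: affinity for DCLK1 (listed as DCAMKL1) measured as one member of a kinome-wide kinase profiling panel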
[10] = biological target: Cyclin-dependent kinase 2 (Homo sapiens, UniProt P24941); assay type: functional;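 note: CDK2 measured as one member of a broad kinome profiling panel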
[11] = biological target: Megakaryocyte-associated tyrosine-protein kinase (Homo sapiens, UniProt P42679); assay type: functional;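 note: affinity measured as one member of a kinase panel (Navigating the Kinome) against MATK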
[12] = biological target: BDNF/NT-3 growth factors receptor (Homo sapiens, UniProt Q16620); assay type: functional;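 note: NTRK2 measured as one member of a broad kinome-wide kinase profiling panel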
[13] = biological target: Maternal embryonic leucine zipper kinase (Homo sapiens, UniProt Q14680); assay type: functional
[14] = biological target: Ribosomal protein S6 kinase alpha-5 (Homo sapiens, UniProt O75582); assay type: functional
[15] = biological target: Mitogen-activated protein kinase kinase kinase kinase 4 (Homo sapiens, UniProt O95819); assay type: functional
Mitogen-activated protein kinase kinase kinase kinase 4, sequence (O95819 whole entry): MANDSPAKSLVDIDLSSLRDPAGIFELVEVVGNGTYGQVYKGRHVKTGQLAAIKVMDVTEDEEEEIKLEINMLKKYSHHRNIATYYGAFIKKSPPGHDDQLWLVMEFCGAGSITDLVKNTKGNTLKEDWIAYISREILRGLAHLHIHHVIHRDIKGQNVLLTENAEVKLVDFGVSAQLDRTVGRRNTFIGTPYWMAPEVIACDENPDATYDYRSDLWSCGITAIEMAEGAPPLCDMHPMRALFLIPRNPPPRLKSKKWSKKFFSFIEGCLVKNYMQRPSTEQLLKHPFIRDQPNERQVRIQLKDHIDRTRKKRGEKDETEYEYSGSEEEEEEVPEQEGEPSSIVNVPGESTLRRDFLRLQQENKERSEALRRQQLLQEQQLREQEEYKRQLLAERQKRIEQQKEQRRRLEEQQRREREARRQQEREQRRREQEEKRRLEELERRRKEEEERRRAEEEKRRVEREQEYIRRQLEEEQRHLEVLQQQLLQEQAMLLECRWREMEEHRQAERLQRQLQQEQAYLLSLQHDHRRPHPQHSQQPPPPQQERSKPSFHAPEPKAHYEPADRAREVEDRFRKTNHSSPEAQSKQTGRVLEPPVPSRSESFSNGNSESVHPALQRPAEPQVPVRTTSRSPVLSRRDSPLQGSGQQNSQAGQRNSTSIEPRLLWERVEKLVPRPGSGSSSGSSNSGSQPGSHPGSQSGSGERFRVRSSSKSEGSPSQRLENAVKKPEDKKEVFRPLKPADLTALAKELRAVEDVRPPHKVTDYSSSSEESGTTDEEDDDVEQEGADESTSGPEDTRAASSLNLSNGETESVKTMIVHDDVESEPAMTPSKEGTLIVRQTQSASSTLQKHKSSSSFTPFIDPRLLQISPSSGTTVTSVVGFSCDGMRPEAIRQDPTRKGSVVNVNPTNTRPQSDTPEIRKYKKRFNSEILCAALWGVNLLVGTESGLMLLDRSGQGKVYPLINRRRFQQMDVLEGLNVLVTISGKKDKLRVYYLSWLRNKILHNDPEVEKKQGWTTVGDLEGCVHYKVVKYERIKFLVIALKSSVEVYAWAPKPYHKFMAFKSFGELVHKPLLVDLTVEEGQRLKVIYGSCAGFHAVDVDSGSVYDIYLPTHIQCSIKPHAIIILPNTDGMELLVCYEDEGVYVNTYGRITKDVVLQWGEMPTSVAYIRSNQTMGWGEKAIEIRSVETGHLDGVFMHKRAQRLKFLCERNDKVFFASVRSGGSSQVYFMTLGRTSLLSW

[16] = biological target: Eukaryotic elongation factor 2 kinase (Homo sapiens, UniProt O00418); assay type: functional
Eukaryotic elongation factor 2 kinase, sequence (O00418 whole entry): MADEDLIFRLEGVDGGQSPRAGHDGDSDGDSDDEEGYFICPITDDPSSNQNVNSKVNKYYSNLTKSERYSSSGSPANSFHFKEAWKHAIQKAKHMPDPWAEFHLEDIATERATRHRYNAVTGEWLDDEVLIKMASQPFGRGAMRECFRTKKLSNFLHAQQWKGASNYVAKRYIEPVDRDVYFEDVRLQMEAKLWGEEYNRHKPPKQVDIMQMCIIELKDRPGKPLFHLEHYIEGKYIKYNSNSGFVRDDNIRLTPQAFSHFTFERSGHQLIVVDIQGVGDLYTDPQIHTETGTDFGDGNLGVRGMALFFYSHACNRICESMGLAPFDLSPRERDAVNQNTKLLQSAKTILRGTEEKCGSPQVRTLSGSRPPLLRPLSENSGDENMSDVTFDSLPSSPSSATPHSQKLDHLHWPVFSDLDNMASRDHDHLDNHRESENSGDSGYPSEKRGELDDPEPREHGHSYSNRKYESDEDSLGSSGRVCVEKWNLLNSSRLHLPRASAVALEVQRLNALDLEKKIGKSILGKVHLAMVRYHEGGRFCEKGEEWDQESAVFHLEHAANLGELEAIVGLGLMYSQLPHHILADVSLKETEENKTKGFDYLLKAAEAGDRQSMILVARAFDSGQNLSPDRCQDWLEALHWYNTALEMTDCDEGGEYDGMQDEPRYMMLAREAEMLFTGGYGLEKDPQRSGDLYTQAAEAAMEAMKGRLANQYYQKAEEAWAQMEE

[17] = biological target: Protein-tyrosine kinase 2-beta (Homo sapiens, UniProt Q14289); assay type: functional
[18] = biological target: Mitogen-activated protein kinase 14 (Homo sapiens, UniProt Q16539); assay type: functional;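 note: part of a kinome-wide panel, MAPK14 entry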
[19] = biological target: Dual specificity protein kinase CLK2 (Homo sapiens, UniProt P49760); assay type: functional
[20] = biological target: Tyrosine-protein kinase Srms (Homo sapiens, UniProt Q9H3Y6); assay type: functional;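 note: SRMS measured as one member of a kinome-wide kinase profiling panel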
Tyrosine-protein kinase Srms, sequence (Q9H3Y6 whole entry): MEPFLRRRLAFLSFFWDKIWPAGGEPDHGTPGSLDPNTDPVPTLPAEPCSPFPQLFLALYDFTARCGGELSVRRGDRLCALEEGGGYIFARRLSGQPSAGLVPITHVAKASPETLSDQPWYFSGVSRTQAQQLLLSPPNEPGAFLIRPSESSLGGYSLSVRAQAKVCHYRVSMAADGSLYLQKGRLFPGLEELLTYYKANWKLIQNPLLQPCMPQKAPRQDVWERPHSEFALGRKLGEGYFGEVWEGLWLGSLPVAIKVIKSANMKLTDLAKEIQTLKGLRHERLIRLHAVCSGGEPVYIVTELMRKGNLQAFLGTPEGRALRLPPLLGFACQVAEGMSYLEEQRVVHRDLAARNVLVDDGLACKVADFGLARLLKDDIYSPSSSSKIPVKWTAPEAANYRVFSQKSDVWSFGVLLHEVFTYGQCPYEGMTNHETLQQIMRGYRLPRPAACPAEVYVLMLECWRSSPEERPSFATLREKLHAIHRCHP

[21] = biological target: Tyrosine-protein kinase ITK/TSK (Homo sapiens, UniProt Q08881); assay type: functional;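 note: affinity for ITK measured as one member of a broad kinase panel profiling binding across the kinome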
[22] = biological target: T1, Microphthalmia-associated transcription factor (Homo sapiens, UniProt O75030); test: reducers of TRPM1 reporter luminescence, concentration series – cell-based, SK-MEL-5, cherry-picked, set 3, MITF inhibitor project, dose response (AID 493073); assay type: functional;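 note: SK-MEL-5 melanoma cells with luciferase driven by the MITF target TRPM1 promoter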
T1 sequence (O75030 whole entry): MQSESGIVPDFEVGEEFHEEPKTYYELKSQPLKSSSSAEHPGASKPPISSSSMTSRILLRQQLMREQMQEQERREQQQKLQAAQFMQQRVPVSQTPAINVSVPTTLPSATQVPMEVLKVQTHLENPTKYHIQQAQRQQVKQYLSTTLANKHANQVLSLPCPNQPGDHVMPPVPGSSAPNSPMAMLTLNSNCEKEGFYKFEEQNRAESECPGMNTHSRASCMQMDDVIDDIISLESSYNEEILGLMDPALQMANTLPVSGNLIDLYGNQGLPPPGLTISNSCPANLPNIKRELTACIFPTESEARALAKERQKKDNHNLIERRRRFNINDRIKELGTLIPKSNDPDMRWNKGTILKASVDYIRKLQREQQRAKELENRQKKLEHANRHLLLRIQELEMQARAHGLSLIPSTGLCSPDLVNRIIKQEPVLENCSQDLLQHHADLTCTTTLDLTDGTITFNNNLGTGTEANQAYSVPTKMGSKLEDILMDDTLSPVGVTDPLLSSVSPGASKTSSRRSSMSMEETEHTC

[23] = HEK-293T cell viability reduction – luminescence, B-cell screen hits, cytotoxicity control for BCR NF-kB inhibitor project, dose response (AID 489021); assay type: functional, cell-based;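 note: HEK-293T cells carrying an NF-kB luciferase reporter; cells exposed to compound for about 14 hours before viability readout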
[24] = biological target: T2, Sentrin-specific protease 7 (Homo sapiens, UniProt Q9BQF6); test: inhibition of human SENP7 cleavage activity – biochemical, luminescence, SAR follow-up (AID 504497); assay type: functional
T2 sequence (Q9BQF6 whole entry): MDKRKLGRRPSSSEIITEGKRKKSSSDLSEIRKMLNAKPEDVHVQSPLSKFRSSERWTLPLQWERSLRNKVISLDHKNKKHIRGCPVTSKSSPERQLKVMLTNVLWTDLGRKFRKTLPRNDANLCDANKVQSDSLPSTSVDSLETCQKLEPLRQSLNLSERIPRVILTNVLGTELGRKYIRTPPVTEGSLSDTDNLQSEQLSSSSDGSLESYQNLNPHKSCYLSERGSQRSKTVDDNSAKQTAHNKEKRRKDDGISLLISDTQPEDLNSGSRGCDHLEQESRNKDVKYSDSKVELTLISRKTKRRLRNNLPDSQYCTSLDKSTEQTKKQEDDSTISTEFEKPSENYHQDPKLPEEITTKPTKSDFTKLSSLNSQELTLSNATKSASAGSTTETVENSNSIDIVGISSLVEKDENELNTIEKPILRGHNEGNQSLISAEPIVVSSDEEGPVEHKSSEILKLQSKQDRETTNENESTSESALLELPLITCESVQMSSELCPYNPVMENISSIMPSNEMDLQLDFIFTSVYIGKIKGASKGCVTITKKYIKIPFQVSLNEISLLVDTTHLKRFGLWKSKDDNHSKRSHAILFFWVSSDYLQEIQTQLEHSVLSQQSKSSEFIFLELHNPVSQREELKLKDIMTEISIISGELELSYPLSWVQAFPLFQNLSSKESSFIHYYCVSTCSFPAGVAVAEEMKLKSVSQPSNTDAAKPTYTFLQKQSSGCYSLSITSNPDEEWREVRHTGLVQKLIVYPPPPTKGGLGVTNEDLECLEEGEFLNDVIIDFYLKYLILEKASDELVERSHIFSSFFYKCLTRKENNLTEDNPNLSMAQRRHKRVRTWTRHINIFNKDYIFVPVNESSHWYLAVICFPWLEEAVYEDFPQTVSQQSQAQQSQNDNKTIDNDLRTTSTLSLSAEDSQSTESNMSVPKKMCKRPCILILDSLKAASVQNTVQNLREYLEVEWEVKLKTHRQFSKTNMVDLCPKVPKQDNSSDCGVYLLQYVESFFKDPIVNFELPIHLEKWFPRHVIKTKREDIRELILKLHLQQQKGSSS

Proto-oncogene tyrosine-protein kinase receptor Ret, sequence (P07949 whole entry): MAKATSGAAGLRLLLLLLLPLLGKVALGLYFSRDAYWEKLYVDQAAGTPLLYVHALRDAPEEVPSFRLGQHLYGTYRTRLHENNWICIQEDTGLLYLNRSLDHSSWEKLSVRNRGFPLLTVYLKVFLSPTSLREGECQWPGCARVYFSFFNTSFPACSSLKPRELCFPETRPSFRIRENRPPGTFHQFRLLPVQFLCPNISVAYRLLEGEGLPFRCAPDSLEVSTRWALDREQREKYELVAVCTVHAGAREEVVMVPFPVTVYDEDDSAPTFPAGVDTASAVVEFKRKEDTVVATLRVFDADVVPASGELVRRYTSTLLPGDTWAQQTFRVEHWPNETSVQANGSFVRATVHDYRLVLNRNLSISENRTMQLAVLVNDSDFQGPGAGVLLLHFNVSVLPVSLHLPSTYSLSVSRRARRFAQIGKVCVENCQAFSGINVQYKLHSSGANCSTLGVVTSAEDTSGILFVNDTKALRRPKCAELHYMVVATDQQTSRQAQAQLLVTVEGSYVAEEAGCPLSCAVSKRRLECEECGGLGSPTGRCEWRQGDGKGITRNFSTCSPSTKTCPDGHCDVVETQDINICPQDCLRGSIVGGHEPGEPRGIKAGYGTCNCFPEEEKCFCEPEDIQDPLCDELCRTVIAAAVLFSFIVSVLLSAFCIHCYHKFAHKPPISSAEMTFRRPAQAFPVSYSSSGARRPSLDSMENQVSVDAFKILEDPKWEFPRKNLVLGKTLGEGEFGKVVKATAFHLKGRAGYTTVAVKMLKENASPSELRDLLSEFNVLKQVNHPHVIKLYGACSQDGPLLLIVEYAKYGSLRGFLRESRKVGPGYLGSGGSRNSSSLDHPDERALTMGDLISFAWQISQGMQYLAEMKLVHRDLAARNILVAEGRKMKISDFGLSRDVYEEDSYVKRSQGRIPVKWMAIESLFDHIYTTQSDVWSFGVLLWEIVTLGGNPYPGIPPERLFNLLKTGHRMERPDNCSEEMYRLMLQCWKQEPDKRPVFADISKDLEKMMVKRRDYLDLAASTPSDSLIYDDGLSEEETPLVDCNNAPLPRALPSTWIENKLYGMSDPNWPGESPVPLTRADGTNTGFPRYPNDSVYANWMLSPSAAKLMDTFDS

Ki [1]: > 2.51 µM (inactive) | Ki [2]: 3.16 µM (active) | Ki [3]: > 3.98 µM (inactive) | Ki [4]: 158 nM (active) | Ki [5]: > 1.58 µM (inactive) | Ki [6]: > 2.51 µM (inactive) | Ki [7]: > 1.58 µM (inactive) | Ki [8]: > 7.94 µM (inactive) | Ki [9]: > 10 µM (inactive) | Ki [10]: 1 µM (active) | Ki [11]: > 2 µM (inactive) | Ki [12]: > 3.16 µM (inactive) | Ki [13]: > 1.58 µM (inactive) | Ki [14]: 631 nM (active) | Ki [15]: > 2.51 µM (inactive) | Ki [16]: > 3.98 µM (inactive) | Ki [17]: > 1.58 µM (inactive) | Ki [18]: > 3.98 µM (inactive) | Ki [19]: 1.26 µM (active) | Ki [20]: > 1.58 µM (inactive) | Ki [21]: > 5.01 µM (inactive)
SMILES: CC(N)C1CCC(C(=O)Nc2ccnc3[nH]ccc23)CC1 (centres undefined)

SMILES: Cc1c(NC(=O)C(C)OC(=O)c2ccc([N+](=O)[O-])s2)c(=O)n(-c2ccccc2)n1C (centres undefined)
AC50 [22]: 34.1 µM (active)

SMILES: COc1cc(Br)c(C(=O)c2nccc3cc(OC)c(OC)cc23)cc1OC
IC50 [23]: > 80 µM (inactive) | IC50 [24]: 2.99 µM (active)
